From PubChem BioAssay AID504322 (Emory University Molecular Libraries Screening Center, 2011)
Active and inactive are the calls of the source. No rule for the calls is given here.

System: CHOP reporter cell assay, percent of control
Test: CHOP reporter inhibitor potency, dose response, cell-based (AID 504322);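 also: CHO cells carrying a CHOP reporter stimulated with tunicamycin to induce ER stress; potency is for inhibition of the stress-induced reporter signal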

SMILES | IC50
CC(/C=C1\SC(=O)N(CCCC(=O)O)C1=O)=C\c1ccccc1 | < 0.16 µM
COc1ccc(N2C(=O)CC(Sc3nnnn3-c3ccc(F)cc3)C2=O)cc1 (stereo not drawn) | 0.24 µM
CC1(C)C[C@H]2C=C(C=O)[C@]3(C=O)C[C@]3(C)[C@H]2C1 | 0.85 µM
CC1=CC(C)(C)N(C(=O)c2ccc(F)cc2)c2cc3c(cc21)OCO3 | 5.31 µM (inactive)
COc1ccc(C(=O)NNC(=O)c2ccccn2)cc1 | 3.12 µM (inactive)
O=C(c1ccc2c3c(cccc13)C(=O)N(O)C2=O)N1CCCCC1 | 1.92 µM
Fc1c(F)c(C(F)(F)F)c(F)c(F)c1N/N=C\c1cccs1 | 4.78 µM
CCc1ccc(C(=O)/C=C/c2ccc([N+](=O)[O-])o2)cc1 | 9.75 µM (inactive)
COC(=O)c1ccc2c(c1)C(C)(C)C(/C=C/c1ccc(O)cc1)=[N+]2C | > 10 µM (inactive)
CCOC(=O)c1cnc(-n2nc(C)cc2C)nc1NC1CCCCC1 | > 10 µM (inactive)
CC(C)C[C@H](NC(=O)OC(C)(C)C)C(=O)N/N=C/C1=Cc2ccccc2OC1C (stereo partly drawn) | 2.31 µM
CCC(C)[C@@H](NC(=O)OC(C)(C)C)c1nnc(S(=O)(=O)Cc2cccc(C)c2)o1 (stereo partly drawn) | 4.78 µM
CC1(c2ccccc2)CC(C)(C)N2C(=O)C3(C(C#N)=C(N)Oc4cc(O)ccc43)c3cccc1c32 (stereo not drawn) | 5.48 µM (inactive)
OC(c1cccc(OCc2ccccc2)c1)c1nnc(-c2ccccc2)o1 (stereo not drawn) | > 10 µM (inactive)
CCc1cc(-c2n[nH]c(C)c2Oc2ccc(C(C)C)cc2)c(O)cc1O | 7.24 µM (inactive)
CCSc1nc2ccccc2n1C(=O)/C=C/c1ccc(OC)c(OC)c1 | 4.97 µM
Cc1ccc(/C=N/n2c(C3CCCCC3)n[nH]c2=S)s1 | 5.3 µM (inactive)
O=Cc1s/c(=N\S(=O)(=O)c2ccccc2)n(CCCCl)c1Cl | 5.89 µM (inactive)
